{"source": "paper PMC11859031", "about": "“Assessment of the In Vitro Biological Activities of Schiff Base-Synthesized Copper Oxide Nanoparticles as an Anti-Diabetic, Anti-Alzheimer, and Anti-Cancer Agent” (Pharmaceutics, 2025)", "key": {"[1]": {"assay": "Iron reducing power (IRP)", "settings": "samples at 100 µg/mL; mean ± SE, n = 3", "protocol": "ammonium molybdate. Methanol (80%) was used in place of the sample for the blank. The tubes were sealed and incubated in a boiling water bath for 90 minutes.\nAfter cooling to room temperature, the absorbance was measured at 695 nm against the blank. […] was used at the same concentrations as a standard. The antioxidant capacity was expressed as mg gallic acid equivalent per gram weight.\nThe iron reducing power was determined as µg/mL using the method proposed by Oyaizu (1986). In brief, 1ml of the tested sample (at each concentration) was combined with 1mL of 200mM sodium phosphate buffer (pH 6.6) and 1mL of 1% potassium ferricyanide. […] The absorbance was measured at 700nm against a blank prepared without the sample. […] A high absorbance at 700nm indicates a higher reducing power in the reaction mixture.\nThe 1,1-Diphenyl-2-picryl-hydrazyl (DPPH) radical scavenging activities were evaluated using the method described by Rahman et al. An antioxidant substance capable of donating a hydrogen atom to a solution containing DPPH- can reduce the stable free radical, causing the solution to change color from violet to pale yellow.\nThe remaining DPPH- radical was quantified by measuring the intensity of a light-purple colored DPPH methanol solution in the visible range at 518 nm using a spectroscopic method. […]"}, "[2]": {"test_system": "caspase-3 in Caco-2 cells", "assay": "Caspase-3 ELISA in treated Caco-2 cells", "assay_type": "cell-based, human", "settings": "Caco-2 cells treated at the IC50 value, mean ± SE, n = 3", "protocol": "Following the treatment of HepG-2, Caco-2, A549, and BJ-1 cells with the SB-CuO-NPs at their respective IC50 values, as illustrated in Figure 9 and detailed in Table 5, an assessment of the activities of the caspase-3 and Bcl-2 enzymes was conducted in the treated cells. […] This mechanism ultimately triggers apoptosis. Additionally, the increased activity of caspase-3 results in a decrease in the expression of cyclin D1 and CDK-2 mRNA, thereby promoting the arrest of the G1 phase of the cell cycle. Othman et al. further noted that the biosynthesized M-NPs facilitate apoptosis by inhibiting the expression of the PI3K/AKT and Ras/Raf/ERK protein signaling pathways.\nInvitrogen Corporation, following the manufacturer's instructions."}, "[3]": {"assay": "Total antioxidant capacity (TAC), phosphomolybdenum method", "settings": "samples at 100 µg/mL; mean ± SE, n = 3", "protocol": "1. Preparation of SB-CuO-NPs\nThe copper oxide nanoparticles (CuO-NPs) were biosynthesized using a concentrated anhydrous copper sulfate solution (1 mM) as a metal precursor based […]\ndissolved in 100 ml of deionized water to form a 0.1 M concentration. The Schiff base (SB) was mixed with the metal solution in a ratio of 4:1. The SB-CuO-NPs was monitored by a color change. They were dried at 80 °C after centrifuging the colloidal solution at 4000 rpm for 15 min.\n2. Characterization of the SB-CuO-NPs\nThe spectra of the SB-CuO-NPs were characterized using a Shimadzu UV-VIS recording spectrophotometer UV-240 after diluting the samples (10-fold) with deionized water at λ 200 - 800 nm. Their surface zeta potentials were measured using the laser zeta meter (Malvern Zetasizer 2000, Malvern, Worcestershire, UK) following […]\nMoreover, their average hydrodynamic sizes were determined using the laser diffraction method with multiple scattering techniques employing dynamic light scattering (DLS) (Malvern Zetasizer Nano ZS, Malvern Instruments Ltd., Malvern, United Kingdom) (Murdock et al., 2008). […]\nAll biological activities were assessed in the prepared samples at equal concentrations (100 µg/mL). […]\nAfter cooling to room temperature, the absorbance was measured at 695 nm against the blank. […] The antioxidant capacity was expressed as mg gallic acid equivalent per gram weight. […]"}}}
{"smiles": "Cc1nn(-c2ccccc2)c(Cl)c1C=NN=C1C(=O)Nc2ccccc21", "note": "[SB]", "values": [{"measurement": "Antioxidant activity IRP", "setting": "[1]", "result": "47.66 ± 0.19", "unit": "µg/mL"}, {"measurement": "Caspase-3", "setting": "[2]", "result": "144.28 ± 0.22", "unit": "pg/mL"}, {"measurement": "Antioxidant activity TAC", "setting": "[3]", "result": "65.41 ± 0.19", "unit": "mg gallic acid/g"}]}
